In patent EP0491103B1, “Compositions for therapeutic use comprising organogermanium derivatives” (Larranaga Mendizabal, Eusebio, priority 1990, dated 1992):

Experiments:
[1] = as indicated in Miyao K. et al., DRUGS OF FUTURE 13, no. 5, 1988; cited from earlier work
[2] = test system: macrophages obtained from the mice peritoneum; experiment: Test 2: Production of macrophages in mice (peritoneal macrophage count); assay type: in vivo, BALB/C mice; conditions: 1 ml subcutaneously every 3 days; for macrophage counts: after 30 days (10 sessions), first group, distilled water 1.0; for average macrophage counts: at 60 days (20 sessions), second group, distilled water 1.1
[3] = test system: macrophages removed from the second Group mice; experiment: Test 2: protein synthesis (35S-met.) and DNA synthesis (3H-Thy.) in macrophages removed from treated mice and cultured in vitro for 24 hours; assay type: in vivo, BALB/C mice; conditions: macrophages of second group mice (60 days) cultured 24 hours, water-treated mice = 100%; for relative (percentage) values of DNA synthesis: ³H-Thy.; for relative (percentage) values of protein synthesis: ³⁵S-met.
Description: 15 BALB/C mice (18-20 g) were divided into two groups of 5 and 10 mice. The first group was administered 1 ml of the aqueous solutions described below every 3 days for 30 days (10 sessions), subcutaneously.
The solutions applied were as follows: a) distilled water, b) sodium thiosulphate (25 g/lit), c) formic acid (0.3 g/lit), d) above described organogermanium compound solution, and e) above described organogermanium compound plus formic acid (0.3 g/lit).
Finally, the macrophages removed from the second Group mice were cultured "in vitro" for 24 hours, protein synthesis (using ³⁵S-met. as indicator) and DNA synthesis (using ³H-Thy.) determinations being made therewith.

Row | Molecule | solubility in water [1] | macrophage counts [2] | average macrophage counts [2] | relative (percentage) values of DNA synthesis [3] [%] | relative (percentage) values of protein synthesis [3] [%]
1 | O=C(O)C[CH2][Ge](=[O])[O][Ge](=[O])[CH2]CC(=O)O [Ge-132, carboxyethylgermanium sesquioxide] | soluble in water | – | – | – | –
2 | O=CO [formic acid] | – | 1.2 millions of microphages per millilitre | 1.2 millions of macrophages per millilitre | 140 | 115
3 | sodium thiosulphate | – | 0.9 millions of microphages per millilitre | 1.0 millions of macrophages per millilitre | 102 | 98
